{"source": "the NIST ThermoML archive (doi:10.1021/je400408w)", "assay": "molar heat capacity at constant pressure; xn = mol fraction of the nth substance listed", "conditions": "100 kPa, Liquid", "note": "± gives the expanded uncertainty stated by the source.", "data": [{"smiles": "CN1CCCC1=O", "note": "[N-methylpyrrolidone] + Cc1ccc(Cl)cc1", "values": [{"measurement": "molar heat capacity at constant pressure", "setting": "293.15 K, x1 = 1", "value": "165.44 ± 1.5", "unit": "J/K/mol"}, {"measurement": "molar heat capacity at constant pressure", "setting": "298.15 K, x1 = 1", "value": "166.22 ± 1.5", "unit": "J/K/mol"}, {"measurement": "molar heat capacity at constant pressure", "setting": "303.15 K, x1 = 1", "value": "166.92 ± 1.6", "unit": "J/K/mol"}]}, {"smiles": "Cc1ccc(Cl)cc1", "note": "[4-chlorotoluene] + CN1CCCC1=O", "values": [{"measurement": "molar heat capacity at constant pressure", "setting": "293.15 K, x2 = 0", "value": "175.66 ± 1.6", "unit": "J/K/mol"}, {"measurement": "molar heat capacity at constant pressure", "setting": "293.15 K, x2 = 0.0671", "value": "176.7 ± 1.6", "unit": "J/K/mol"}, {"measurement": "molar heat capacity at constant pressure", "setting": "293.15 K, x2 = 0.1128", "value": "177.44 ± 1.6", "unit": "J/K/mol"}, {"measurement": "molar heat capacity at constant pressure", "setting": "293.15 K, x2 = 0.1487", "value": "178.03 ± 1.6", "unit": "J/K/mol"}, {"measurement": "molar heat capacity at constant pressure", "setting": "293.15 K, x2 = 0.1876", "value": "178.67 ± 1.7", "unit": "J/K/mol"}, {"measurement": "molar heat capacity at constant pressure", "setting": "293.15 K, x2 = 0.2219", "value": "179.21 ± 1.7", "unit": "J/K/mol"}, {"measurement": "molar heat capacity at constant pressure", "setting": "293.15 K, x2 = 0.2615", "value": "179.85 ± 1.7", "unit": "J/K/mol"}, {"measurement": "molar heat capacity at constant pressure", "setting": "293.15 K, x2 = 0.2987", "value": "180.33 ± 1.7", "unit": "J/K/mol"}, {"measurement": "molar heat capacity at constant pressure", "setting": "293.15 K, x2 = 0.3328", "value": "180.77 ± 1.7", "unit": "J/K/mol"}, {"measurement": "molar heat capacity at constant pressure", "setting": "293.15 K, x2 = 0.3728", "value": "181.29 ± 1.7", "unit": "J/K/mol"}, {"measurement": "molar heat capacity at constant pressure", "setting": "293.15 K, x2 = 0.4137", "value": "181.62 ± 1.7", "unit": "J/K/mol"}, {"measurement": "molar heat capacity at constant pressure", "setting": "293.15 K, x2 = 0.4512", "value": "181.89 ± 1.7", "unit": "J/K/mol"}, {"measurement": "molar heat capacity at constant pressure", "setting": "293.15 K, x2 = 0.4928", "value": "182.07 ± 1.7", "unit": "J/K/mol"}, {"measurement": "molar heat capacity at constant pressure", "setting": "293.15 K, x2 = 0.5316", "value": "182.09 ± 1.7", "unit": "J/K/mol"}, {"measurement": "molar heat capacity at constant pressure", "setting": "293.15 K, x2 = 0.5773", "value": "181.94 ± 1.7", "unit": "J/K/mol"}, {"measurement": "molar heat capacity at constant pressure", "setting": "293.15 K, x2 = 0.6154", "value": "181.61 ± 1.7", "unit": "J/K/mol"}, {"measurement": "molar heat capacity at constant pressure", "setting": "293.15 K, x2 = 0.6542", "value": "181.16 ± 1.7", "unit": "J/K/mol"}, {"measurement": "molar heat capacity at constant pressure", "setting": "293.15 K, x2 = 0.6927", "value": "180.46 ± 1.7", "unit": "J/K/mol"}, {"measurement": "molar heat capacity at constant pressure", "setting": "293.15 K, x2 = 0.7326", "value": "179.54 ± 1.7", "unit": "J/K/mol"}, {"measurement": "molar heat capacity at constant pressure", "setting": "293.15 K, x2 = 0.7732", "value": "178.32 ± 1.6", "unit": "J/K/mol"}, {"measurement": "molar heat capacity at constant pressure", "setting": "293.15 K, x2 = 0.8142", "value": "176.8 ± 1.6", "unit": "J/K/mol"}, {"measurement": "molar heat capacity at constant pressure", "setting": "293.15 K, x2 = 0.8315", "value": "176 ± 1.6", "unit": "J/K/mol"}, {"measurement": "molar heat capacity at constant pressure", "setting": "293.15 K, x2 = 0.8715", "value": "174.08 ± 1.6", "unit": "J/K/mol"}, {"measurement": "molar heat capacity at constant pressure", "setting": "293.15 K, x2 = 0.9153", "value": "171.57 ± 1.6", "unit": "J/K/mol"}, {"measurement": "molar heat capacity at constant pressure", "setting": "293.15 K, x2 = 0.9534", "value": "169.04 ± 1.6", "unit": "J/K/mol"}, {"measurement": "molar heat capacity at constant pressure", "setting": "298.15 K, x2 = 0", "value": "177.95 ± 1.6", "unit": "J/K/mol"}, {"measurement": "molar heat capacity at constant pressure", "setting": "298.15 K, x2 = 0.0671", "value": "178.71 ± 1.7", "unit": "J/K/mol"}, {"measurement": "molar heat capacity at constant pressure", "setting": "298.15 K, x2 = 0.1128", "value": "179.35 ± 1.7", "unit": "J/K/mol"}, {"measurement": "molar heat capacity at constant pressure", "setting": "298.15 K, x2 = 0.1487", "value": "179.8 ± 1.7", "unit": "J/K/mol"}, {"measurement": "molar heat capacity at constant pressure", "setting": "298.15 K, x2 = 0.1876", "value": "180.38 ± 1.7", "unit": "J/K/mol"}, {"measurement": "molar heat capacity at constant pressure", "setting": "298.15 K, x2 = 0.2219", "value": "180.88 ± 1.7", "unit": "J/K/mol"}, {"measurement": "molar heat capacity at constant pressure", "setting": "298.15 K, x2 = 0.2615", "value": "181.44 ± 1.7", "unit": "J/K/mol"}, {"measurement": "molar heat capacity at constant pressure", "setting": "298.15 K, x2 = 0.2987", "value": "181.87 ± 1.7", "unit": "J/K/mol"}, {"measurement": "molar heat capacity at constant pressure", "setting": "298.15 K, x2 = 0.3328", "value": "182.28 ± 1.7", "unit": "J/K/mol"}, {"measurement": "molar heat capacity at constant pressure", "setting": "298.15 K, x2 = 0.3728", "value": "182.72 ± 1.7", "unit": "J/K/mol"}, {"measurement": "molar heat capacity at constant pressure", "setting": "298.15 K, x2 = 0.4137", "value": "183.02 ± 1.7", "unit": "J/K/mol"}, {"measurement": "molar heat capacity at constant pressure", "setting": "298.15 K, x2 = 0.4512", "value": "183.22 ± 1.7", "unit": "J/K/mol"}, {"measurement": "molar heat capacity at constant pressure", "setting": "298.15 K, x2 = 0.4928", "value": "183.31 ± 1.7", "unit": "J/K/mol"}, {"measurement": "molar heat capacity at constant pressure", "setting": "298.15 K, x2 = 0.5316", "value": "183.2 ± 1.7", "unit": "J/K/mol"}, {"measurement": "molar heat capacity at constant pressure", "setting": "298.15 K, x2 = 0.5773", "value": "182.93 ± 1.7", "unit": "J/K/mol"}, {"measurement": "molar heat capacity at constant pressure", "setting": "298.15 K, x2 = 0.6154", "value": "182.53 ± 1.7", "unit": "J/K/mol"}, {"measurement": "molar heat capacity at constant pressure", "setting": "298.15 K, x2 = 0.6542", "value": "182.01 ± 1.7", "unit": "J/K/mol"}, {"measurement": "molar heat capacity at constant pressure", "setting": "298.15 K, x2 = 0.6927", "value": "181.23 ± 1.7", "unit": "J/K/mol"}, {"measurement": "molar heat capacity at constant pressure", "setting": "298.15 K, x2 = 0.7326", "value": "180.21 ± 1.7", "unit": "J/K/mol"}, {"measurement": "molar heat capacity at constant pressure", "setting": "298.15 K, x2 = 0.7732", "value": "178.9 ± 1.7", "unit": "J/K/mol"}, {"measurement": "molar heat capacity at constant pressure", "setting": "298.15 K, x2 = 0.8142", "value": "177.33 ± 1.6", "unit": "J/K/mol"}, {"measurement": "molar heat capacity at constant pressure", "setting": "298.15 K, x2 = 0.8315", "value": "176.54 ± 1.6", "unit": "J/K/mol"}, {"measurement": "molar heat capacity at constant pressure", "setting": "298.15 K, x2 = 0.8715", "value": "174.58 ± 1.6", "unit": "J/K/mol"}, {"measurement": "molar heat capacity at constant pressure", "setting": "298.15 K, x2 = 0.9153", "value": "172.16 ± 1.6", "unit": "J/K/mol"}, {"measurement": "molar heat capacity at constant pressure", "setting": "298.15 K, x2 = 0.9534", "value": "169.62 ± 1.6", "unit": "J/K/mol"}, {"measurement": "molar heat capacity at constant pressure", "setting": "303.15 K, x2 = 0", "value": "180.37 ± 1.7", "unit": "J/K/mol"}, {"measurement": "molar heat capacity at constant pressure", "setting": "303.15 K, x2 = 0.0671", "value": "180.9 ± 1.7", "unit": "J/K/mol"}, {"measurement": "molar heat capacity at constant pressure", "setting": "303.15 K, x2 = 0.1128", "value": "181.36 ± 1.7", "unit": "J/K/mol"}, {"measurement": "molar heat capacity at constant pressure", "setting": "303.15 K, x2 = 0.1487", "value": "181.81 ± 1.7", "unit": "J/K/mol"}, {"measurement": "molar heat capacity at constant pressure", "setting": "303.15 K, x2 = 0.1876", "value": "182.29 ± 1.7", "unit": "J/K/mol"}, {"measurement": "molar heat capacity at constant pressure", "setting": "303.15 K, x2 = 0.2219", "value": "182.72 ± 1.7", "unit": "J/K/mol"}, {"measurement": "molar heat capacity at constant pressure", "setting": "303.15 K, x2 = 0.2615", "value": "183.16 ± 1.7", "unit": "J/K/mol"}, {"measurement": "molar heat capacity at constant pressure", "setting": "303.15 K, x2 = 0.2987", "value": "183.61 ± 1.7", "unit": "J/K/mol"}, {"measurement": "molar heat capacity at constant pressure", "setting": "303.15 K, x2 = 0.3328", "value": "183.94 ± 1.7", "unit": "J/K/mol"}, {"measurement": "molar heat capacity at constant pressure", "setting": "303.15 K, x2 = 0.3728", "value": "184.22 ± 1.7", "unit": "J/K/mol"}, {"measurement": "molar heat capacity at constant pressure", "setting": "303.15 K, x2 = 0.4137", "value": "184.44 ± 1.7", "unit": "J/K/mol"}, {"measurement": "molar heat capacity at constant pressure", "setting": "303.15 K, x2 = 0.4512", "value": "184.54 ± 1.7", "unit": "J/K/mol"}, {"measurement": "molar heat capacity at constant pressure", "setting": "303.15 K, x2 = 0.4928", "value": "184.53 ± 1.7", "unit": "J/K/mol"}, {"measurement": "molar heat capacity at constant pressure", "setting": "303.15 K, x2 = 0.5316", "value": "184.46 ± 1.7", "unit": "J/K/mol"}, {"measurement": "molar heat capacity at constant pressure", "setting": "303.15 K, x2 = 0.5773", "value": "184.08 ± 1.7", "unit": "J/K/mol"}, {"measurement": "molar heat capacity at constant pressure", "setting": "303.15 K, x2 = 0.6154", "value": "183.54 ± 1.7", "unit": "J/K/mol"}, {"measurement": "molar heat capacity at constant pressure", "setting": "303.15 K, x2 = 0.6542", "value": "182.89 ± 1.7", "unit": "J/K/mol"}, {"measurement": "molar heat capacity at constant pressure", "setting": "303.15 K, x2 = 0.6927", "value": "182.04 ± 1.7", "unit": "J/K/mol"}, {"measurement": "molar heat capacity at constant pressure", "setting": "303.15 K, x2 = 0.7326", "value": "180.88 ± 1.7", "unit": "J/K/mol"}, {"measurement": "molar heat capacity at constant pressure", "setting": "303.15 K, x2 = 0.7732", "value": "179.49 ± 1.7", "unit": "J/K/mol"}, {"measurement": "molar heat capacity at constant pressure", "setting": "303.15 K, x2 = 0.8142", "value": "177.84 ± 1.6", "unit": "J/K/mol"}, {"measurement": "molar heat capacity at constant pressure", "setting": "303.15 K, x2 = 0.8315", "value": "177.12 ± 1.6", "unit": "J/K/mol"}, {"measurement": "molar heat capacity at constant pressure", "setting": "303.15 K, x2 = 0.8715", "value": "175.13 ± 1.6", "unit": "J/K/mol"}, {"measurement": "molar heat capacity at constant pressure", "setting": "303.15 K, x2 = 0.9153", "value": "172.62 ± 1.6", "unit": "J/K/mol"}, {"measurement": "molar heat capacity at constant pressure", "setting": "303.15 K, x2 = 0.9534", "value": "170.26 ± 1.6", "unit": "J/K/mol"}]}]}
